Source: patent publication US20060247129A1, “Surfactant compounds and agrochemical compositions” (Imperial Chemical Industries PLC, priority 2003, published 2006)
Where a name gives a salt, the structure may show the parent alone.

Key:
Assay in all cases: glasshouse herbicide spray test, % weed control, adjuvant with glyphosate potassium salt
Type in all cases: in vivo
Conditions in all cases: 19 days after treatment
[1] = test system: Abutilon Theophrasti
Procedure: (§1) The compound of Synthesis Example SE1 was tested as an adjuvant with glyphosate potassium salt, mixing the glyphosate and adjuvant in a tank mix using concentrations of glyphosate from 0.125 to 2 g.l-1 and of adjuvant from 0.003125 to 0.2% v/v. The tank mixes were sprayed as a herbicide on a variety of test species at an application rate of 200 l.ha^−1 to give application rates of glyphosate of from 25 to 400 g (active ingredient).ha^−1. The plants were grown in a warm glasshouse and assessed 19 days after treatment for % control—the mean of three replicates for visually assessed % weed control, relative to unsprayed plants of each species in the same test.
(§2) Example AE1 was repeated but using the compound made in Synthesis Example SE4 as the adjuvant.

[2] = test system: Echinochloa crus-galli
Procedure: as §1, §2

[3] = test system: Portulaca oleracea
Procedure: as §1, §2

[4] = test system: Sida Spinosa
Procedure: as §1, §2

[5] = test system: Solanum nigra
Procedure: as §1, §2

[6] = test system: Sorghum halepense
Procedure: as §1, §2

[7] = glyphosate 200 g ai/ha, adjuvant 0 % v/v
[8] = glyphosate 400 g ai/ha, adjuvant 0 % v/v
[9] = glyphosate 25 g ai/ha, adjuvant 0 % v/v
[10] = glyphosate 50 g ai/ha, adjuvant 0 % v/v
[11] = glyphosate 100 g ai/ha, adjuvant 0 % v/v
[12] = glyphosate 50 g ai/ha, adjuvant 0.003125 % v/v
[13] = glyphosate 50 g ai/ha, adjuvant 0.0125 % v/v
[14] = glyphosate 50 g ai/ha, adjuvant 0.05 % v/v
[15] = glyphosate 50 g ai/ha, adjuvant 0.2 % v/v
[16] = glyphosate 100 g ai/ha, adjuvant 0.003125 % v/v
[17] = glyphosate 100 g ai/ha, adjuvant 0.0125 % v/v
[18] = glyphosate 100 g ai/ha, adjuvant 0.05 % v/v
[19] = glyphosate 100 g ai/ha, adjuvant 0.2 % v/v
[20] = glyphosate 200 g ai/ha, adjuvant 0.003125 % v/v
[21] = glyphosate 200 g ai/ha, adjuvant 0.0125 % v/v
[22] = glyphosate 200 g ai/ha, adjuvant 0.05 % v/v
[23] = glyphosate 200 g ai/ha, adjuvant 0.2 % v/v
[24] = glyphosate 400 g ai/ha, adjuvant 0.003125 % v/v
[25] = glyphosate 400 g ai/ha, adjuvant 0.0125 % v/v
[26] = glyphosate 400 g ai/ha, adjuvant 0.05 % v/v
[27] = glyphosate 400 g ai/ha, adjuvant 0.2 % v/v
[28] = glyphosate 25 g ai/ha, adjuvant 0.003125 % v/v
[29] = glyphosate 25 g ai/ha, adjuvant 0.0125 % v/v
[30] = glyphosate 25 g ai/ha, adjuvant 0.05 % v/v
[31] = glyphosate 25 g ai/ha, adjuvant 0.2 % v/v

O=C(O)CNCP(=O)(O)O [Glyphosate, glyphosate potassium salt, reference compound]
% control ABUTH [1, 7]: 53% | % control ABUTH [1, 8]: 73% | % control ECHCG [2, 9]: 21% | % control ECHCG [2, 10]: 47% | % control ECHCG [2, 11]: 67% | % control ECHCG [2, 7]: 82% | % control POROC [3, 10]: 3% | % control POROC [3, 11]: 10% | % control POROC [3, 7]: 22% | % control POROC [3, 8]: 38% | % control SIDSP [4, 10]: 30% | % control SIDSP [4, 11]: 35% | % control SIDSP [4, 7]: 58% | % control SIDSP [4, 8]: 75% | % control SOLNI [5, 10]: 37% | % control SOLNI [5, 11]: 65% | % control SOLNI [5, 7]: 77% | % control SOLNI [5, 8]: 78% | % control SORHA [6, 9]: 8% | % control SORHA [6, 10]: 47% | % control SORHA [6, 11]: 79% | % control SORHA [6, 7]: 82%

Random 8-ethoxylate-2-propoxylate of N-methyl glucamine C8/C10 glycidyl ether [SE1]
% control ABUTH [1, 12]: 33% | % control ABUTH [1, 13]: 33% | % control ABUTH [1, 14]: 38% | % control ABUTH [1, 15]: 27% | % control ABUTH [1, 16]: 53% | % control ABUTH [1, 17]: 35% | % control ABUTH [1, 18]: 43% | % control ABUTH [1, 19]: 42% | % control ABUTH [1, 20]: 62% | % control ABUTH [1, 21]: 66% | % control ABUTH [1, 22]: 66% | % control ABUTH [1, 23]: 70% | % control ABUTH [1, 24]: 81% | % control ABUTH [1, 25]: 82% | % control ABUTH [1, 26]: 79% | % control ABUTH [1, 27]: 83% | % control ECHCG [2, 28]: 15% | % control ECHCG [2, 29]: 10% | % control ECHCG [2, 30]: 22% | % control ECHCG [2, 31]: 37% | % control ECHCG [2, 12]: 48% | % control ECHCG [2, 13]: 47% | % control ECHCG [2, 14]: 58% | % control ECHCG [2, 15]: 70% | % control ECHCG [2, 16]: 85% | % control ECHCG [2, 17]: 82% | % control ECHCG [2, 18]: 84% | % control ECHCG [2, 19]: 89% | % control ECHCG [2, 20]: 92% | % control ECHCG [2, 21]: 90% | % control ECHCG [2, 22]: 93% | % control ECHCG [2, 23]: 97% | % control POROC [3, 12]: 7% | % control POROC [3, 13]: 4% | % control POROC [3, 14]: 12% | % control POROC [3, 15]: 30% | % control POROC [3, 16]: 8% | % control POROC [3, 17]: 9% | % control POROC [3, 18]: 18% | % control POROC [3, 19]: 37% | % control POROC [3, 20]: 23% | % control POROC [3, 21]: 20% | % control POROC [3, 22]: 45% | % control POROC [3, 23]: 64% | % control POROC [3, 24]: 42% | % control POROC [3, 25]: 43% | % control POROC [3, 26]: 60% | % control POROC [3, 27]: 73% | % control SIDSP [4, 12]: 30% | % control SIDSP [4, 13]: 38% | % control SIDSP [4, 14]: 42% | % control SIDSP [4, 15]: 31% | % control SIDSP [4, 16]: 33% | % control SIDSP [4, 17]: 48% | % control SIDSP [4, 18]: 48% | % control SIDSP [4, 19]: 55% | % control SIDSP [4, 20]: 63% | % control SIDSP [4, 21]: 48% | % control SIDSP [4, 22]: 72% | % control SIDSP [4, 23]: 79% | % control SIDSP [4, 24]: 79% | % control SIDSP [4, 25]: 73% | % control SIDSP [4, 26]: 83% | % control SIDSP [4, 27]: 78% | % control SOLNI [5, 12]: 37% | % control SOLNI [5, 13]: 35% | % control SOLNI [5, 14]: 48% | % control SOLNI [5, 15]: 50% | % control SOLNI [5, 16]: 62% | % control SOLNI [5, 17]: 68% | % control SOLNI [5, 18]: 68% | % control SOLNI [5, 19]: 77% | % control SOLNI [5, 20]: 80% | % control SOLNI [5, 21]: 81% | % control SOLNI [5, 22]: 81% | % control SOLNI [5, 23]: 79% | % control SOLNI [5, 24]: 80% | % control SOLNI [5, 25]: 81% | % control SOLNI [5, 26]: 79% | % control SOLNI [5, 27]: 82% | % control SORHA [6, 28]: 17% | % control SORHA [6, 29]: 7% | % control SORHA [6, 30]: 8% | % control SORHA [6, 31]: 45% | % control SORHA [6, 12]: 40% | % control SORHA [6, 13]: 22% | % control SORHA [6, 14]: 20% | % control SORHA [6, 15]: 84% | % control SORHA [6, 16]: 90% | % control SORHA [6, 17]: 81% | % control SORHA [6, 18]: 72% | % control SORHA [6, 19]: 92% | % control SORHA [6, 20]: 93% | % control SORHA [6, 21]: 91% | % control SORHA [6, 22]: 91% | % control SORHA [6, 23]: 96%

Random 8-ethoxylate-2-propoxylate of N-methyl glucamine C13/C15 glycidyl ether [SE4]
% control ABUTH [1, 12]: 40% | % control ABUTH [1, 13]: 48% | % control ABUTH [1, 14]: 25% | % control ABUTH [1, 15]: 43% | % control ABUTH [1, 16]: 42% | % control ABUTH [1, 17]: 33% | % control ABUTH [1, 18]: 50% | % control ABUTH [1, 19]: 52% | % control ABUTH [1, 20]: 42% | % control ABUTH [1, 21]: 65% | % control ABUTH [1, 22]: 58% | % control ABUTH [1, 23]: 68% | % control ABUTH [1, 24]: 78% | % control ABUTH [1, 25]: 80% | % control ABUTH [1, 26]: 81% | % control ABUTH [1, 27]: 85% | % control ECHCG [2, 28]: 12% | % control ECHCG [2, 29]: 15% | % control ECHCG [2, 30]: 51% | % control ECHCG [2, 31]: 53% | % control ECHCG [2, 12]: 32% | % control ECHCG [2, 13]: 35% | % control ECHCG [2, 14]: 68% | % control ECHCG [2, 15]: 91% | % control ECHCG [2, 16]: 78% | % control ECHCG [2, 17]: 83% | % control ECHCG [2, 18]: 90% | % control ECHCG [2, 19]: 98% | % control ECHCG [2, 20]: 90% | % control ECHCG [2, 21]: 89% | % control ECHCG [2, 22]: 95% | % control ECHCG [2, 23]: 98% | % control POROC [3, 12]: 7% | % control POROC [3, 13]: 2% | % control POROC [3, 14]: 13% | % control POROC [3, 15]: 35% | % control POROC [3, 16]: 8% | % control POROC [3, 17]: 18% | % control POROC [3, 18]: 43% | % control POROC [3, 19]: 46% | % control POROC [3, 20]: 28% | % control POROC [3, 21]: 36% | % control POROC [3, 22]: 45% | % control POROC [3, 23]: 50% | % control POROC [3, 24]: 42% | % control POROC [3, 25]: 47% | % control POROC [3, 26]: 63% | % control POROC [3, 27]: 81% | % control SIDSP [4, 12]: 30% | % control SIDSP [4, 13]: 38% | % control SIDSP [4, 14]: 38% | % control SIDSP [4, 15]: 38% | % control SIDSP [4, 16]: 37% | % control SIDSP [4, 17]: 38% | % control SIDSP [4, 18]: 52% | % control SIDSP [4, 19]: 62% | % control SIDSP [4, 20]: 50% | % control SIDSP [4, 21]: 63% | % control SIDSP [4, 22]: 77% | % control SIDSP [4, 23]: 76% | % control SIDSP [4, 24]: 76% | % control SIDSP [4, 25]: 78% | % control SIDSP [4, 26]: 78% | % control SIDSP [4, 27]: 77% | % control SOLNI [5, 12]: 37% | % control SOLNI [5, 13]: 32% | % control SOLNI [5, 14]: 63% | % control SOLNI [5, 15]: 73% | % control SOLNI [5, 16]: 65% | % control SOLNI [5, 17]: 68% | % control SOLNI [5, 18]: 71% | % control SOLNI [5, 19]: 78% | % control SOLNI [5, 20]: 78% | % control SOLNI [5, 21]: 73% | % control SOLNI [5, 22]: 80% | % control SOLNI [5, 23]: 82% | % control SOLNI [5, 24]: 83% | % control SOLNI [5, 25]: 83% | % control SOLNI [5, 26]: 84% | % control SOLNI [5, 27]: 85% | % control SORHA [6, 28]: 8% | % control SORHA [6, 29]: 8% | % control SORHA [6, 30]: 32% | % control SORHA [6, 31]: 84% | % control SORHA [6, 12]: 23% | % control SORHA [6, 13]: 20% | % control SORHA [6, 14]: 68% | % control SORHA [6, 15]: 89% | % control SORHA [6, 16]: 78% | % control SORHA [6, 17]: 70% | % control SORHA [6, 18]: 90% | % control SORHA [6, 19]: 95% | % control SORHA [6, 20]: 87% | % control SORHA [6, 21]: 89% | % control SORHA [6, 22]: 96% | % control SORHA [6, 23]: 95%
